Data set [1] has as its target T1, Lck(h) activated (Homo sapiens, UniProt P06239).
T1 construct: purchased Eurofins UK Ltd (Dundee, UK)
Nature of the data set: Kinase panel assay (Eurofins). It counts as biochemical. On the procedure:
In vitro profiling of the 121-recombinant kinase panel was performed at Eurofins UK Ltd (Dundee, UK). In brief, recombinant kinases were incubated within an appropriate buffer containing peptide substrate and radiolabelled γ-^33P-ATP together with the presence or absence of the required compound concentration. The reaction was initiated by adding ATP/Mg^2+ mix. After incubation for 40 minutes at room temperature, the reaction was stopped by adding 3% phosphoric acid solution. A portion of the reaction mix was spotted onto P30 filtermat to trap peptide and washed three times for 5 minutes with phosphoric acid to remove non-specific γ-^33P-ATP. The substrate phosphorylation was then measured by scintillation counting, which determined the level of kinase activity inhibition compared to control reactions. Percentage inhibition data for each kinase was mapped to the kinome tree (www.kinhub.org).

Data set [2] concerns the target T2, BCRP (Homo sapiens, UniProt Q9UNQ0).
T2 construct: endogenous in cells; host or cells: Caco-2
As to the kind of experiment: BCRP efflux ratio, bi-directional transport assay. In kind it is in vitro ADME.

For data set [3], the target named is T3, pHER2 (Homo sapiens, UniProt P04626).
T3 construct: from tissue; host or cells: subcutaneous BT474C1-Luci Mono1 xenograft tumour tissue from nude mice
Nature of the data set: pHER2 IHC (PD) in SC xenograft tumor tissue after single dose. In kind it is in vivo, mice. On the procedure: The subcutaneous xenograft tissues were collected from mice after a single dose of vehicle or DZD1516. Samples were snap-frozen for analysis. Tissues from animals were analyzed at each time point IHC was performed on 5 μm frozen sections using a Ventana discovery XT automation (Roche) for pHER2 (Catalog #) IHC staining. The stained IHC slides were firstly reviewed and interpreted by a qualified pathologist and then quantified by the Imagescope software of Aperio system. The “H” score quantified by Aperio system will be corrected by a pathologist. Statistical analysis was performed by t-test.

Data set [4] in a line: Phase 1 study: plasma pharmacokinetics. It counts as in vivo, human. The settings on record: for AUC(0-t): 250 mg. On the procedure: Blood samples for PK analyses of DZD1516 and DZ2678 were collected on C0D1. Samples were obtained at pre-dose and at 0.5, 1, 1.5, 2, 2.5, 3, 4, 6, 8, 10, 24, 48, and 72 h after the dose, while for C1D15, samples were obtained at pre-dose and 0.5, 1, 1.5, 2, 2.5, 3, 4, 6, 8, and 10 h after the dose. CSF samples for PK analyses of DZD1516 and its metabolite DZ2678 were collected from patients with BM (C1D15) and LM (C1D15 and C3D1) at steady state (Additional file 1). Plasma and CSF samples were analyzed by LabCorp Madison laboratory (Madison, WI, USA) and LabCorp Shanghai laboratory (Shanghai, China) using a validated LC/MS/MS bioanalytical method to determine DZD1516 and DZ2678 concentrations. Non-compartmental PK analysis was performed using Phoenix WinNonlin (Certara USA Inc., version 8.3.3.33).
Blood samples for PK analyses of DZD1516 and DZ2678 were collected on C0D1 and C1D15.
Plasma concentrations of analytes evaluated in this study were determined using validated bioanalytical methods at Labcorp Madison lab (Madison, WI, USA) and Labcorp Shanghai lab (Shanghai, China). Concentrations of analytes in human plasma containing K2EDTA as an anticoagulant was determined using plasma precipitation, followed by analysis using high-performance LC-MS/MS detection. Two bioanalytical methods used […] of plasma and were linear over the range of 5.00 (the lower limit of quantification) to 5000 ng/mL for DZD1516 and 2.00 (the lower limit of quantification) to 2000 ng/mL for DZ2678 (Labcorp Shanghai lab), 1.96 (the lower limit of quantification) to 1960 ng/mL for DZ2678 (Labcorp Madison lab). The analysis runs for all analytes were determined to have a high degree of reproducibility and acceptably low inter-run carryover, which was considered acceptable for PK quantification. The plasma samples were stored at –70°C until analysis. PK analyses were performed by using Phoenix WinNonLin (Certara USA, Inc., Version 8.1 or higher).

Data set [5] deals with T4, HER2 (Homo sapiens, UniProt P04626). As to the kind of experiment: In vitro HER2 enzymatic assay (Lance Ultra Kinase Assay). On the set-up: purchased Thermo Fisher PR4918A. It counts as biochemical. The settings on record: recombinant HER2, 2 mM ATP; read-out: IC50 against HER2 in the enzymatic assay. On the procedure:
Recombinant HER2 was purchased from Thermo Fisher (Cat. # PR4918A). The inhibition potency of compounds against HER2 enzyme was assessed using Lance Ultra Kinase Assay.
In brief, recombinant kinases were pre-incubated in the presence or absence of the compound at room temperature for 30 minutes. The reaction was initiated by the addition of the ATP and substrate peptide. After 60 minutes of incubation, the reaction was stopped by the addition of the detection reagent mix containing EDTA. The fluorescence was measured at 615 nm and 665 nm, respectively, with excitation wavelength at 320 nm. The calculated signal ratio of 665 nm/615 nm is proportional to the kinase activity.

The target of data set [6] is T4, HER2. Nature of the data set: pHER2 MSD assay in BT474C1 cells. It counts as cell-based. Also noted: endogenous in cells; host or cells: BT474C1-Luci Mono1 (BT474 transfected with luciferase only). The note with it: BT474C1, 4 hrs treatment. On the procedure:
A431 and BT474C1-Luci Mono1 cells were seeded in 96-well plates at 20,000 cells/well in DMEM medium containing 1% FBS. After overnight incubation, all cells were treated with compounds at a series of concentrations for 4 hrs. For A431 cell line, an extra stimulation with recombinant human EGF (100 ng/ml for 10 minutes) is applied to activate wild-type EGFR following compound treatment. pEGFR^Y1068 and total EGFR levels were measured by an electro chemiluminescent method (MULTI-SPOT®96 4-Spot HB Prototype EGFR Triplex […]: pEGFR (Y1068), Total EGFR; MESO SCALE DISCOVERY, Cat# N45ZB-1) with MSD SECTOR® Imager, which outputs the ratio of pEGFR/total EGFR for each well. pHER2^Y1248 and total HER2 levels were measured similarly using pHER2 (Y1248) Assay Whole Cell Lysate Kit (MESO SCALE DISCOVERY, Cat# K151CLD-3). The percentage of inhibition was calculated as: % Inhibition = 100 x [1 - (ratio of the sample well - ratio of Min ctrl well)/ (ratio of Max ctrl well - ratio of Min ctrl well)].

The record followed here is paper PMC10327353 (Breast Cancer Research : BCR, 2023).

Like-named read-outs stand apart in the source and are kept apart here.

T3 sequence (P04626 23-1255): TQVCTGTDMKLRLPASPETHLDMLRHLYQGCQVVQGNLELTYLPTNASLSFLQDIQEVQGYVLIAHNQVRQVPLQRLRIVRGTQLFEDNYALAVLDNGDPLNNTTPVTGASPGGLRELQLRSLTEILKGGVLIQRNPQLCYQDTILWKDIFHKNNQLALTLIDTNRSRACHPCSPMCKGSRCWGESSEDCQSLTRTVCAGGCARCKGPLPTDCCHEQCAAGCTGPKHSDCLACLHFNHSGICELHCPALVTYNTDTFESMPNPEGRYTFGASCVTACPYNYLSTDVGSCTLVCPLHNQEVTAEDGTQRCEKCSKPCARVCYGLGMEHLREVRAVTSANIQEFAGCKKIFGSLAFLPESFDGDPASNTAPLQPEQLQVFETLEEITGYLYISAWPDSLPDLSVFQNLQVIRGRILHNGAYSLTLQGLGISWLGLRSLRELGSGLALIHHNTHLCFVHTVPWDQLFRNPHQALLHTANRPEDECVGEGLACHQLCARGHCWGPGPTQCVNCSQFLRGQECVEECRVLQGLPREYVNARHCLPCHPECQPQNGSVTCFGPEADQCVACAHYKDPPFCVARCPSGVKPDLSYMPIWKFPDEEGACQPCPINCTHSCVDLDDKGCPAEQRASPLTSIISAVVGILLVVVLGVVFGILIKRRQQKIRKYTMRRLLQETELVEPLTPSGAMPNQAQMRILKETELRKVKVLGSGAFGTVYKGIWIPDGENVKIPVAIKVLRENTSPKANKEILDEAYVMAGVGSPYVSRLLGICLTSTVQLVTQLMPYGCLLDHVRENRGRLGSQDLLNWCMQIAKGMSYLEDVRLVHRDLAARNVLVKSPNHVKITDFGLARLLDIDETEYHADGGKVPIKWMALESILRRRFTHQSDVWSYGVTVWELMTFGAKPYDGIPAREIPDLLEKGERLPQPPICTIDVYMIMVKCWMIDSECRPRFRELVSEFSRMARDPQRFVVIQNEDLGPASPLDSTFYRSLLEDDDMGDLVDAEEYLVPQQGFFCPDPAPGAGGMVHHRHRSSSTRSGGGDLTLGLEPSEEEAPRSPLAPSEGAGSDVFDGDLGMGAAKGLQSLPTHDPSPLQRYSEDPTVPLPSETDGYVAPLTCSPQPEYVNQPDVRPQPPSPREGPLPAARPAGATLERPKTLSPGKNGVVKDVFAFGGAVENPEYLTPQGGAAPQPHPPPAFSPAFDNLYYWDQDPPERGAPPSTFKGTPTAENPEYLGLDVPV
T4 sequence (P04626 23-1255): as above
T2 sequence (Q9UNQ0 whole entry): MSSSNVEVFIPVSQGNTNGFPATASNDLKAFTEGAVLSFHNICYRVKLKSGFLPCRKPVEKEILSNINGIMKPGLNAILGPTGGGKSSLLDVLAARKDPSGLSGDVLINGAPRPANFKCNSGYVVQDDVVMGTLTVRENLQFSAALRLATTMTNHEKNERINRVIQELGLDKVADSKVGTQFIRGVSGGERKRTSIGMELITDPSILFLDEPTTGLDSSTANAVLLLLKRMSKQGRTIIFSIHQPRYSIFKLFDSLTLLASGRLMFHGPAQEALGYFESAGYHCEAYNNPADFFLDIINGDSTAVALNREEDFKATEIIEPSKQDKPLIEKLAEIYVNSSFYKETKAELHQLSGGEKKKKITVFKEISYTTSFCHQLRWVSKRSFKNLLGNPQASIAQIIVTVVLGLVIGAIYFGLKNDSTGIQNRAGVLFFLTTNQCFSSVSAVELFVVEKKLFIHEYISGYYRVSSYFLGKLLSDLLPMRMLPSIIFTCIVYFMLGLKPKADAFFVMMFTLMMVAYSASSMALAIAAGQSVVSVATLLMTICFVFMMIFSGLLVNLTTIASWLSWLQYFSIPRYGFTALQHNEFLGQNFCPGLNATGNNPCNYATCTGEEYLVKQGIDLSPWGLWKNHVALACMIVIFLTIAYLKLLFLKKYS
T1 sequence (P06239 whole entry): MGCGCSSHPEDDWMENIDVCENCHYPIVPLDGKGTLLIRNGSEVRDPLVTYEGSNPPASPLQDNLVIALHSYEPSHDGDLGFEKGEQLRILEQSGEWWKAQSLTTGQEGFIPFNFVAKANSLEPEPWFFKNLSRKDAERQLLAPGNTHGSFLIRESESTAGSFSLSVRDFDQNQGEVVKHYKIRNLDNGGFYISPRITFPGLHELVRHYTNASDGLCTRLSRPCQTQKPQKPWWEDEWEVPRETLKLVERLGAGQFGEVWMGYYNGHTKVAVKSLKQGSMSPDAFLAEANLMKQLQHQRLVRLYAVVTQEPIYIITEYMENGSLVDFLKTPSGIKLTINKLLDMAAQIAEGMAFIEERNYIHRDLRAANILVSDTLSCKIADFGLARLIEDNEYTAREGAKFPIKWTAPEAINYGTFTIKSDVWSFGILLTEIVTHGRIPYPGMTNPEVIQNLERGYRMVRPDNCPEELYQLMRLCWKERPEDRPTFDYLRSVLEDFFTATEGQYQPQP

With `COc1cc(O[C@H]2CCN(C)CC2(F)F)c2c(Nc3ccc(Oc4ccn5ncnc5c4)c(C)c3)ncnc2c1` [DZD1516], the results for the IC50 in data set [1], in data set [5] and in data set [6] were 180 nM, 0.56 nM and 4.4 nM, respectively. In addition, the “Efflux ratio BCRP @1 µM” value in data set [2] (1 µM, listed as Cpd-5) was 1.3. For the same compound, the efflux ratio at 120 min, 1 µM in data set [2] (human, Caco-2, pH 7.4, 1 µM) was < 2. Further, the inhibition at 50 mg/kg in data set [3] (mouse, single dose 50 mg/kg, 0.25 h) was > 94%. Moreover, 150 mg/kg produced 89% inhibition in data set [3] (mouse, single dose 150 mg/kg). Moreover, the figures for the “duration of pHER2 inhibition” value in data set [3] (single dose 50 mg/kg) and in data set [3] (single dose 150 mg/kg) were 6 h and 24 h, respectively. For the same compound, in data set [4] (Day 15, 250 mg BID DZD1516), the “Css,max, Geometric Mean [CV%]” value is 1410[44.64] ng/mL. In data set [4] (Day 15, 250 mg BID DZD1516), the “Css,min, Geometric Mean [CV%]” value was 442.8[50.12] ng/mL. In data set [4] (Day 15, 250 mg BID DZD1516), the “tss,max, Median (Min, Max)” value is listed as 1.483(0.533,2.47) hr. For the same compound, the AUC(0-t) in data set [4] (human, plasma, oral, Day 1, 250 mg DZD1516, read-out: AUC0-10, Geometric Mean [CV%]) came out at 6160 ng·h/mL; in data set [4] (human, plasma, oral, Day 1, 250 mg DZD1516, read-out: AUC0-72, Geometric Mean [CV%]), 13200 ng·h/mL; in data set [4] (human, plasma, oral, Day 15, 250 mg BID DZD1516, read-out: AUC0-10, Geometric Mean [CV%]), 7560 ng·h/mL. In data set [4] (human, plasma, oral, Day 1, 250 mg DZD1516, read-out: Cmax, Geometric Mean [CV%]), the highest concentration (Cmax) was found to be 1330 ng/mL. Further, the half-life is 19.8 h in data set [4] (human, plasma, oral, Day 1, 250 mg DZD1516, read-out: t1/2, Mean (SD) (converted)) and 13.3 to 20.1 h in data set [4] (human, plasma, oral, patients, read-out: half-life). The time of peak concentration (Tmax) is 2.85 h in data set [4] (human, plasma, oral, Day 1, 250 mg DZD1516, read-out: tmax, Median (Min, Max)) and 2.15 to 3.22 h in data set [4] (human, plasma, patients, single oral administration 50 to 300 mg, read-out: median tmax). Besides, the AUC in data set [4] (human, plasma, oral, Day 15, 250 mg BID DZD1516, read-out: AUCtau, Geometric Mean [CV%]) was 8340 ng·h/mL. Also, in data set [4] (steady state, 15 days of twice daily dosing), the accumulation entry is “approximately twofold”.
